In US4810422A, “Bile acid derivatives, their salts and production thereof” (priority 1986, dated 1989):

Legend:
[1] = test system: P388 Mouse leukemia cells; test: Carcinolytic effect: inhibition of ^3 H-thymidine intake in P388 leukemia cells; type: cell-based; conditions: 2 hours then 1 hour with ^3 H-thymidine, vs. solvent control; for Percent inhibition against ^3 H-thymidine intake: 50 μM, 37° C
Experimental: P388 Mouse leukemia cells which were subjected to passage transplantation in CDF1 mice were suspended in RPMI1640 culture fluid containing 20 mM HEPES to a cell density of 5×10^5 cells/ml, and 1 ml each of aliquots were apportioned into test tubes. Each of the test samples was added to the suspension to a final concentration of 50 μM, and each preparation was incubated at 37° C with shaking (100 shuttles/min.). Two hours thereafter, ^3 H-thymidine was added to a final concentration of 0.25 μCi/ml, and the incubation was further carried out for 1 hour. Then the radioactivity taken in the cells was measured by a conventional method.

[2] = test system: male ICR mice; test: Toxicity: single administration, life span observed for 3 weeks; type: in vivo
Experimental: Separately, 500 mg/kg of the above test compound was administered intraperitoneally to a group of eight male ICR mice, and their life spans were similarly observed for 3 weeks.

| SMILES | inhibition at 50 µM ([1]; Mus musculus, P388, 37° C, read-out: Percent inhibition against ^3 H-thymidine intake) [%] | Percent inhibition against ^3 H-thymidine intake [1] [%] | mortality, intraperitoneal ([2]; 500 mg/kg intraperitoneal, eight male ICR mice) | mortality, oral ([2]; 2,000 mg/kg oral once, 0.5% CMC, four male ICR mice) |
| --- | --- | --- | --- | --- |
| C[C@H](CCC(=O)O)[C@H]1CC[C@H]2[C@@H]3[C@H](O)C[C@@H]4C[C@H](O)CC[C@]4(C)[C@H]3C[C@H](O)[C@]12C [Cholic acid, reference compound] | 2 | – | – | – |
| C[C@H](CCC(=O)O)[C@H]1CC[C@H]2[C@@H]3[C@H](O)C[C@@H]4C[C@H](OC(=O)Cc5ccc(N(CCCl)CCCl)cc5)CC[C@]4(C)[C@H]3C[C@H](O)[C@]12C [Compound No. 2, 3-O-[p-(N,N-bis(2-chloroethyl)amino)phenylacetyl] cholic acid] | – | 90 | – | – |
| C[C@H](CCC(=O)O)[C@H]1CC[C@H]2[C@@H]3[C@H](O)C[C@@H]4C[C@H](OC(=O)c5ccc(CN(CCCl)CCCl)cc5)CC[C@]4(C)[C@H]3C[C@H](O)[C@]12C [Compound No. 31, 3-O-[p-(N,N-bis(2-chloroethyl)aminomethyl)benzoyl] cholic acid] | – | 94 | – | – |
| C[C@H](CCC(=O)O)[C@H]1CC[C@H]2[C@@H]3[C@H](O)C[C@@H]4C[C@H](OC(=O)CN(CCCl)CCCl)CC[C@]4(C)[C@H]3C[C@H](O)[C@]12C [Compound No. 38, 3-O-[N,N-bis(2-chloroethyl)aminoacetyl] cholic acid] | – | 83 | No mortality case was observed | No mortality case was observed |
| COc1ccc(COC(=O)CC[C@@H](C)[C@H]2CC[C@H]3[C@@H]4[C@H](O)C[C@@H]5C[C@H](OC(=O)c6ccc(OC(=O)N(CCCl)CCCl)cc6)CC[C@]5(C)[C@H]4C[C@H](O)[C@]23C)cc1 [Compound No. 52, p-Methoxybenzyl 3-O-[p-(N,N-bis(2-chloroethyl)aminocarbonyloxy)benzoyl] cholate] | – | 88 | – | – |
